Laboratory results taken from patent publication US7138361B2, “Herbicidal heterocycles” (E. I. du Pont de Nemours and Company, priority 2000, dated 2006).

Columns and labels:
Type in all cases: in vivo
[1] = system: Surinam grass (Brachiaria decumbens); assay: Test B postemergence
Outline: (§1)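 Pre: seeded pots sprayed, chemical in non-phytotoxic solvent/surfactant mix. Post: plants 2–18 cm, 1–4 leaf, same formulation. Greenhouse 13–15 d; visual % control vs untreated, 0–100 scale.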

[2] = system: barnyardgrass (Echinochloa crus-galli); assay: Test B postemergence
Outline: as §1

[3] = system: blackgrass (Alopecurus myosuroides); assay: Test B postemergence
Outline: as §1

[4] = system: corn (Zea mays); assay: Test B postemergence
Outline: as §1

[5] = system: giant foxtail (Setaria faberii); assay: Test B postemergence; settings: Rate 125 g/ha, scale 0 to 100, 0 no effect, 100 complete control
Outline: as §1

[6] = system: morning glory (Ipomoea hederacea); assay: Test B postemergence; settings: Rate 125 g/ha, scale 0 to 100, 0 no effect, 100 complete control
Outline: as §1

[7] = system: pigweed (Amaranthus retroflexus); assay: Test B postemergence; settings: Rate 125 g/ha, scale 0 to 100, 0 no effect, 100 complete control
Outline: as §1

[8] = system: velvetleaf (Abutilon theophrasti); assay: Test B postemergence; settings: Rate 125 g/ha, scale 0 to 100, 0 no effect, 100 complete control
Outline: as §1

[9] = system: wheat (Triticum aestivum); assay: Test B postemergence; settings: Rate 125 g/ha, scale 0 to 100, 0 no effect, 100 complete control
Outline: as §1

[10] = system: Surinam grass (Brachiaria decumbens); assay: Test B preemergence
Outline: as §1

[11] = system: barnyardgrass (Echinochloa crus-galli); assay: Test B preemergence
Outline: as §1

[12] = system: cocklebur (Xanthium strumarium); assay: Test B preemergence
Outline: as §1

[13] = system: corn (Zea mays); assay: Test B preemergence
Outline: as §1

[14] = system: crabgrass (Digitaria sanguinalis); assay: Test B preemergence
Outline: as §1

[15] = system: giant foxtail (Setaria faberii); assay: Test B preemergence
Outline: as §1

[16] = system: lambsquarters (Chenopodium album); assay: Test B preemergence
Outline: as §1

[17] = system: morning glory (Ipomoea hederacea); assay: Test B preemergence
Outline: as §1

[18] = system: pigweed (Amaranthus retroflexus); assay: Test B preemergence
Outline: as §1

[19] = system: rice (Oryza saliva); assay: Test B preemergence
Outline: as §1

[20] = system: velvetleaf (Abutilon theophrasti); assay: Test B preemergence
Outline: as §1

[21] = system: barnyardgrass (Echinochloa crus-galli); assay: Test C flooded paddy test; settings: for Barnyardgrass plant response rating: Flooded Paddy, scale 0 to 100, 0 no effect, 100 complete control; for Plant response rating, Barnyardgrass: flooded paddy test, scale 0 to 100 (0 no effect, 100 complete control)
Outline: (§2)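 2-leaf-stage plants, flooded paddy; treated; greenhouse 12–14 days; compared with controls by eye; rated 0–100 (0 none, 100 complete control).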

[22] = system: duck salad (Heteranthera limosa); assay: Test C flooded paddy test; settings: for Ducksalad plant response rating: Flooded Paddy, scale 0 to 100, 0 no effect, 100 complete control; for Plant response rating, Ducksalad: flooded paddy test, scale 0 to 100 (0 no effect, 100 complete control)
Outline: as §2

[23] = system: rice (Oryza saliva); assay: Test C flooded paddy test; settings: for Rice plant response rating: Flooded Paddy, scale 0 to 100, 0 no effect, 100 complete control; for Plant response rating, Rice: flooded paddy test, scale 0 to 100 (0 no effect, 100 complete control)
Outline: as §2

[24] = system: smallflower flatsedge (Cyperus difformis); assay: Test C flooded paddy test; settings: for Flatsedge plant response rating: Flooded Paddy, scale 0 to 100, 0 no effect, 100 complete control; for Plant response rating, Flatsedge: flooded paddy test, scale 0 to 100 (0 no effect, 100 complete control)
Outline: as §2

[25] = system: Nightshade; assay: Test C preemergence; settings: Rate 500 g/ha, visual evaluation after 12 to 14 days
[26] = system: Sunflower; assay: Test C preemergence; settings: Rate 250 g/ha, scale 0 to 100, 0 no effect, 100 complete control
[27] = Rate 125 g/ha, scale 0 to 100, 0 no effect, 100 complete control
[28] = Rate 500 g/ha, scale 0 to 100, 0 is no effect, 100 is complete control, 13 to 15 days
[29] = Preemergence, Rate 500 g/ha, scale 0 to 100, 0 no effect, 100 complete control
[30] = preemergence, Rate 125 g/ha, scale of 0 to 100 where 0 is no effect and 100 is complete control, 13 to 15 days

## CCC(C)Oc1cccc(N2CCC(n3ccc(C(C)(C)C)n3)C2=O)c1 (centres unmarked) [Compound 127]
[1]; [27]
  Plant response rating, Surinam grass: 0
[1]; [28]
  Plant response rating, Surinam grass: 0
[2]; [27]
  Plant response rating, Barnyardgrass: 0
[2]; [28]
  Plant response rating, Barnyardgrass: 0
[3]; [27]
  Plant response rating, Blackgrass: 0
[3]; [28]
  Plant response rating, Blackgrass: 0
[4]; [27]
  Plant response rating, Corn: 0
[4]; [28]
  Plant response rating, Corn: 0
[5]
  Plant response rating, Foxtail, Giant: 0
[6]
  Plant response rating, Morningglory: 0
[7]
  Plant response rating, Pigweed: 0
[8]
  Plant response rating, Velvetleaf: 0
[9]
  Plant response rating, Wheat: 0
[10]; [29]
  Plant response rating, Surinam grass: 70
[10]; [30]
  Plant response rating, Surinam grass: 0
[11]; [29]
  Plant response rating, Barnyardgrass: 100
[11]; [30]
  Plant response rating, Barnyardgrass: 0
[12]; [29]
  Plant response rating, Cocklebur: 0
[12]; [30]
  Plant response rating, Cocklebur: 0
[13]; [29]
  Plant response rating, Corn: 0
[13]; [30]
  Plant response rating, Corn: 0
[14]; [29]
  Plant response rating, Crabgrass: 100
[14]; [30]
  Plant response rating, Crabgrass: 100
[15]; [29]
  Plant response rating, Foxtail, Giant: 100
[15]; [30]
  Plant response rating, Foxtail, Giant: 70
[16]; [29]
  Plant response rating, Lambsquarters: 100
[16]; [30]
  Plant response rating, Lambsquarters: 90
[17]; [29]
  Plant response rating, Morningglory: 0
[17]; [30]
  Plant response rating, Morningglory: 0
[18]; [29]
  Plant response rating, Pigweed: 100
[18]; [30]
  Plant response rating, Pigweed: 0
[19]; [29]
  Plant response rating, Rice: 50
[19]; [30]
  Plant response rating, Rice: 0
[20]; [29]
  Plant response rating, Velvetleaf: 0
[20]; [30]
  Plant response rating, Velvetleaf: 0
[21]; Rate 250 g/ha
  Barnyardgrass plant response rating: 20
[21]; Rate 500 g/ha
  Barnyardgrass plant response rating: 50
[21]; Rate 62 g/ha
  Plant response rating, Barnyardgrass: 0
[21]; Rate 125 g/ha
  Plant response rating, Barnyardgrass: 0
[22]; Rate 250 g/ha
  Ducksalad plant response rating: 50
[22]; Rate 500 g/ha
  Ducksalad plant response rating: 80
[22]; Rate 62 g/ha
  Plant response rating, Ducksalad: 0
[22]; Rate 125 g/ha
  Plant response rating, Ducksalad: 0
[23]; Rate 250 g/ha
  Rice plant response rating: 0
[23]; Rate 500 g/ha
  Rice plant response rating: 0
[23]; Rate 62 g/ha
  Plant response rating, Rice: 0
[23]; Rate 125 g/ha
  Plant response rating, Rice: 0
[24]; Rate 250 g/ha
  Flatsedge plant response rating: 80
[24]; Rate 500 g/ha
  Flatsedge plant response rating: 90
[24]; Rate 62 g/ha
  Plant response rating, Flatsedge: 0
[24]; Rate 125 g/ha
  Plant response rating, Flatsedge: 0
[25]
  Plant response rating (0 to 100), Nightshade: 100
[26]
  Plant response rating, Sunflower: 0

## CCCC(C)c1ccn(C2CCN(c3ccc(Cl)c(OC)c3)C2=O)n1 (centres unmarked) [Compound 121]
[1]; [27]
  Plant response rating, Surinam grass: 30
[1]; [28]
  Plant response rating, Surinam grass: 40
[2]; [27]
  Plant response rating, Barnyardgrass: 0
[2]; [28]
  Plant response rating, Barnyardgrass: 90
[3]; [27]
  Plant response rating, Blackgrass: 0
[3]; [28]
  Plant response rating, Blackgrass: 0
[4]; [27]
  Plant response rating, Corn: 20
[4]; [28]
  Plant response rating, Corn: 30
[5]
  Plant response rating, Foxtail, Giant: 0
[6]
  Plant response rating, Morningglory: 50
[7]
  Plant response rating, Pigweed: 50
[8]
  Plant response rating, Velvetleaf: 30
[9]
  Plant response rating, Wheat: 50
[10]; [29]
  Plant response rating, Surinam grass: 40
[10]; [30]
  Plant response rating, Surinam grass: 0
[11]; [29]
  Plant response rating, Barnyardgrass: 100
[11]; [30]
  Plant response rating, Barnyardgrass: 40
[12]; [29]
  Plant response rating, Cocklebur: 30
[12]; [30]
  Plant response rating, Cocklebur: 10
[13]; [29]
  Plant response rating, Corn: 50
[13]; [30]
  Plant response rating, Corn: 20
[14]; [29]
  Plant response rating, Crabgrass: 100
[14]; [30]
  Plant response rating, Crabgrass: 10
[15]; [29]
  Plant response rating, Foxtail, Giant: 100
[15]; [30]
  Plant response rating, Foxtail, Giant: 0
[16]; [29]
  Plant response rating, Lambsquarters: 100
[16]; [30]
  Plant response rating, Lambsquarters: 100
[17]; [29]
  Plant response rating, Morningglory: 30
[17]; [30]
  Plant response rating, Morningglory: 20
[18]; [29]
  Plant response rating, Pigweed: 100
[18]; [30]
  Plant response rating, Pigweed: 100
[19]; [29]
  Plant response rating, Rice: 0
[19]; [30]
  Plant response rating, Rice: 0
[20]; [29]
  Plant response rating, Velvetleaf: 20
[20]; [30]
  Plant response rating, Velvetleaf: 10
[21]; Rate 250 g/ha
  Barnyardgrass plant response rating: 20
[21]; Rate 500 g/ha
  Barnyardgrass plant response rating: 80
[21]; Rate 62 g/ha
  Plant response rating, Barnyardgrass: 0
[21]; Rate 125 g/ha
  Plant response rating, Barnyardgrass: 20
[22]; Rate 250 g/ha
  Ducksalad plant response rating: 60
[22]; Rate 500 g/ha
  Ducksalad plant response rating: 90
[22]; Rate 62 g/ha
  Plant response rating, Ducksalad: 0
[22]; Rate 125 g/ha
  Plant response rating, Ducksalad: 0
[23]; Rate 250 g/ha
  Rice plant response rating: 0
[23]; Rate 500 g/ha
  Rice plant response rating: 0
[23]; Rate 125 g/ha
  Plant response rating, Rice: 0
[24]; Rate 250 g/ha
  Flatsedge plant response rating: 100
[24]; Rate 500 g/ha
  Flatsedge plant response rating: 100
[24]; Rate 62 g/ha
  Plant response rating, Flatsedge: 100
[24]; Rate 125 g/ha
  Plant response rating, Flatsedge: 100
[25]
  Plant response rating (0 to 100), Nightshade: 100
[26]
  Plant response rating, Sunflower: 50

## CCOc1cccc(N2CCC(n3ccc(C(C)C)n3)C2=O)c1 (centres unmarked) [Compound 128]
[1]; [27]
  Plant response rating, Surinam grass: 70
[1]; [28]
  Plant response rating, Surinam grass: 100
[2]; [27]
  Plant response rating, Barnyardgrass: 0
[2]; [28]
  Plant response rating, Barnyardgrass: 80
[3]; [27]
  Plant response rating, Blackgrass: 0
[3]; [28]
  Plant response rating, Blackgrass: 0
[4]; [27]
  Plant response rating, Corn: 0
[4]; [28]
  Plant response rating, Corn: 0
[5]
  Plant response rating, Foxtail, Giant: 0
[6]
  Plant response rating, Morningglory: 0
[7]
  Plant response rating, Pigweed: 0
[8]
  Plant response rating, Velvetleaf: 0
[9]
  Plant response rating, Wheat: 0
[10]; [29]
  Plant response rating, Surinam grass: 100
[10]; [30]
  Plant response rating, Surinam grass: 100
[11]; [29]
  Plant response rating, Barnyardgrass: 100
[11]; [30]
  Plant response rating, Barnyardgrass: 100
[12]; [29]
  Plant response rating, Cocklebur: 60
[12]; [30]
  Plant response rating, Cocklebur: 0
[13]; [29]
  Plant response rating, Corn: 60
[13]; [30]
  Plant response rating, Corn: 30
[14]; [29]
  Plant response rating, Crabgrass: 100
[14]; [30]
  Plant response rating, Crabgrass: 100
[15]; [29]
  Plant response rating, Foxtail, Giant: 100
[15]; [30]
  Plant response rating, Foxtail, Giant: 100
[16]; [29]
  Plant response rating, Lambsquarters: 100
[16]; [30]
  Plant response rating, Lambsquarters: 100
[17]; [29]
  Plant response rating, Morningglory: 90
[17]; [30]
  Plant response rating, Morningglory: 70
[18]; [29]
  Plant response rating, Pigweed: 100
[18]; [30]
  Plant response rating, Pigweed: 100
[19]; [29]
  Plant response rating, Rice: 100
[19]; [30]
  Plant response rating, Rice: 100
[20]; [29]
  Plant response rating, Velvetleaf: 50
[20]; [30]
  Plant response rating, Velvetleaf: 0
[21]; Rate 250 g/ha
  Barnyardgrass plant response rating: 100
[21]; Rate 500 g/ha
  Barnyardgrass plant response rating: 100
[21]; Rate 62 g/ha
  Plant response rating, Barnyardgrass: 40
[21]; Rate 125 g/ha
  Plant response rating, Barnyardgrass: 100
[22]; Rate 250 g/ha
  Ducksalad plant response rating: 100
[22]; Rate 500 g/ha
  Ducksalad plant response rating: 100
[22]; Rate 62 g/ha
  Plant response rating, Ducksalad: 60
[22]; Rate 125 g/ha
  Plant response rating, Ducksalad: 70
[23]; Rate 250 g/ha
  Rice plant response rating: 30
[23]; Rate 500 g/ha
  Rice plant response rating: 70
[23]; Rate 62 g/ha
  Plant response rating, Rice: 0
[23]; Rate 125 g/ha
  Plant response rating, Rice: 30
[24]; Rate 250 g/ha
  Flatsedge plant response rating: 100
[24]; Rate 500 g/ha
  Flatsedge plant response rating: 100
[24]; Rate 62 g/ha
  Plant response rating, Flatsedge: 90
[24]; Rate 125 g/ha
  Plant response rating, Flatsedge: 90
[25]
  Plant response rating (0 to 100), Nightshade: 100
[26]
  Plant response rating, Sunflower: 100
